28 molecules from patent US8637509B2, “Azaindazoles” (GlaxoSmithKline LLC, priority 2010, dated 2014) can be followed below.

Structures are written as SMILES. pIC50: −log10 of the molar value.

In the assay the target is T1, EZH2 (Homo sapiens, UniProt Q15910).
T1 construct: GRITS37108
As to the kind of experiment: EZH2 methyltransferase SPA assay (3H-SAM, Hela nucleosomes). The class given is biochemical. The conditions noted are these: read-out: IC50.

T1 sequence (Q15910 whole entry): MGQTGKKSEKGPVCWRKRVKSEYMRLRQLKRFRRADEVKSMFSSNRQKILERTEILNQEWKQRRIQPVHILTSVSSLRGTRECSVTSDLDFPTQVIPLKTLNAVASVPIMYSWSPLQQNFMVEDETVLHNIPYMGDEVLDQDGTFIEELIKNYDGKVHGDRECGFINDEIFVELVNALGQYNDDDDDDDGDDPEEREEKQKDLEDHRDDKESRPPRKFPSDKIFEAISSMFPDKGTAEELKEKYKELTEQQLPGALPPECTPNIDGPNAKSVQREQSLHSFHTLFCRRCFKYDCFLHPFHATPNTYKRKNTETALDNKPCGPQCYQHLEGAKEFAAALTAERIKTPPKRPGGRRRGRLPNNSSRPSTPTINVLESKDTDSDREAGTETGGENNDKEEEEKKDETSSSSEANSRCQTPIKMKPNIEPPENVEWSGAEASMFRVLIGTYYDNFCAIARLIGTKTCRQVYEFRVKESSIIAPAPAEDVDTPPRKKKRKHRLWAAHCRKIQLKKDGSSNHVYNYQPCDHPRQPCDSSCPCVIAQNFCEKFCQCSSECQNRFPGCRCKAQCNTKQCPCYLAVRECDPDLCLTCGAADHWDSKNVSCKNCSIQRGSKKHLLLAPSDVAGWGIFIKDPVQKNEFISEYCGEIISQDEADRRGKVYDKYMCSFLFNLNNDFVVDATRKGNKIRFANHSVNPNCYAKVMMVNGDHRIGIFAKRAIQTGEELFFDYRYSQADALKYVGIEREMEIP
T1 sequence (O75530 whole entry partner): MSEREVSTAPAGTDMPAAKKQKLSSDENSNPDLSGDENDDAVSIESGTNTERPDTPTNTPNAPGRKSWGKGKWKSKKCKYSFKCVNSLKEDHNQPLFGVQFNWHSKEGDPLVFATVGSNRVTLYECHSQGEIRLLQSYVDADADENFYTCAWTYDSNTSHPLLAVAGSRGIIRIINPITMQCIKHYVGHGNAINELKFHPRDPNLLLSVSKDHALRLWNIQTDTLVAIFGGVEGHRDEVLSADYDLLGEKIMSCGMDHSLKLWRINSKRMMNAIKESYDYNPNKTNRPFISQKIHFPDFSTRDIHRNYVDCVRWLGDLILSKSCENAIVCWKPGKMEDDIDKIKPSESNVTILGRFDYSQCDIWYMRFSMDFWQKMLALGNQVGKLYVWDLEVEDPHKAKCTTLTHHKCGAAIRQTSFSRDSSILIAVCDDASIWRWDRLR
T1 sequence (Q15022 whole entry partner): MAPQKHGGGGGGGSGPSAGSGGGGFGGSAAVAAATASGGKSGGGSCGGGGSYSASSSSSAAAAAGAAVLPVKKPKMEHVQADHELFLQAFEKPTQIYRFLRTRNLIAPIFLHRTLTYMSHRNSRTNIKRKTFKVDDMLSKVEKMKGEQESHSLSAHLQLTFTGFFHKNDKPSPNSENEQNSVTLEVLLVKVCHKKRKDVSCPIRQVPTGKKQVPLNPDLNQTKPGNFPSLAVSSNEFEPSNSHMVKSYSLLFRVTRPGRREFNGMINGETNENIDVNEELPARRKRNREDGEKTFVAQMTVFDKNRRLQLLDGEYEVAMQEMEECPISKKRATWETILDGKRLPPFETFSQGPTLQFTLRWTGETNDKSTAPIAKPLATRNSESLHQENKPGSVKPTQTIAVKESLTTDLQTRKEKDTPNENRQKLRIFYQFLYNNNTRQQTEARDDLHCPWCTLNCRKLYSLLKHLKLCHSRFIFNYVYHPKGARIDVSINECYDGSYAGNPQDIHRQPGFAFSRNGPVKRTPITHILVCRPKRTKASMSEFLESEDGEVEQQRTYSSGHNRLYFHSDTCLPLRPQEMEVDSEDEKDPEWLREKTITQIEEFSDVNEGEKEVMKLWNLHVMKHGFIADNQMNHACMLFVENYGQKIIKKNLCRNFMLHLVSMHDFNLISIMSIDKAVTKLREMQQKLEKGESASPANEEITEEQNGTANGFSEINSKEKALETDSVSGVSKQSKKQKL
Description: • 1. […] Prepare 500 μM SAH quench solution in ddH20 with 5-10 drops of concentrated HCl to dissolve. • 5. Prepare 6 mg/ml RNA binding SPA beads (Perkin Elmer) suspended in 0.2 M Citric Acid, pH 2.2
Part C. […] Dispense 5 μL no enzyme control (assay buffer mix) to column 18 of plates. • 2. Dispense 5 μL of enzyme mix to the remaining wells in the plate. Centrifuge plate to mix and incubate at room temperature for 30 minutes. • 3. Dispense 5 μL of substrate mix to all wells to initiate the reactions. Centrifuge plate to mix and incubate at room temperature for 2 hours. • 4. […] Dispense 10 μL of 6 mg/ml RNA binding SPA beads prepared in 0.2 M citric acid, pH 2.2 using the Evolution instrument. Continuously shake the beads while adding to plates to prevent beads from settling. • 6. Seal the plates with Perkin Elmer top seals and allow the beads to equilibrate in the plate for at least 30 minutes at room temperature. • 7. […] Read plates in Microbeta after at least 5 hours incubation. Plates can be read immediately, but signal increases over time.
Reagent addition can be done manually or with automated liquid handler.
*The final DMSO concentration in this assay is 1%.
*The positive control is in column 6; negative control is in column 18.

Turning to `Cc1cc(C)c(CNC(=O)c2cc(C#Cc3ccccc3)nc3c2cnn3C(C)C)c(=O)[nH]1` [Ex 31, N-[(4,6-Dimethyl-2-oxo-1,2-dihydro-3-pyridinyl)methyl]-1-(1-methylethyl)-6-(phenylethynyl)-1H-pyrazolo[3,4-b]pyridine-4-carboxamide], the pIC50 (as a rule, −log10 of the IC50, conventionally taken in molar units) is 6.63.

On to `Cc1cc(C)c(CNC(=O)c2cc(C#Cc3ccncc3)nc3c2cnn3C(C)C)c(=O)[nH]1` [Ex 33, N-[(4,6-Dimethyl-2-oxo-1,2-dihydro-3-pyridinyl)methyl]-1-(1-methylethyl)-6-(4-pyridinylethynyl)-1H-pyrazolo[3,4-b]pyridine-4-carboxamide], for which the pIC50 is 7.15.

`Cc1cc(C)c(CNC(=O)c2cc(NCc3ccccc3)nc3c2cnn3C(C)C)c(=O)[nH]1` [Ex 35, N-[(4,6-Dimethyl-2-oxo-1,2-dihydro-3-pyridinyl)methyl]-1-(1-methylethyl)-6-[(phenylmethyl)amino]-1H-pyrazolo[3,4-b]pyridine-4-carboxamide]: the pIC50 was 6.17.

With `Cc1cc(C)c(CNC(=O)c2cc(C(C)C)nc3c2cnn3C(C)C)c(=O)[nH]1` [Ex 37, N-[(4,6-Dimethyl-2-oxo-1,2-dihydro-3-pyridinyl)methyl]-1,6-bis(1-methylethyl)-1H-pyrazolo[3,4-b]pyridine-4-carboxamide], the pIC50 was 5.96.

Turning to `Cc1cc(C)c(CNC(=O)c2cc(-c3ccccc3)nc3c2cnn3C(C)C)c(=O)[nH]1` [Ex 38, N-[(4,6-Dimethyl-2-oxo-1,2-dihydro-3-pyridinyl)methyl]-1-(1-methylethyl)-6-phenyl-1H-pyrazolo[3,4-b]pyridine-4-carboxamide], the pIC50 was 6.41.

As for `Cc1cc(C)c(CNC(=O)c2cc(-c3ccc(N(C)C)nc3)nc3c2cnn3C(C)C)c(=O)[nH]1` [Ex 41, 6-[6-(Dimethylamino)-3-pyridinyl]-N-[(4,6-dimethyl-2-oxo-1,2-dihydro-3-pyridinyl)methyl]-1-(1-methylethyl)-1H-pyrazolo[3,4-b]pyridine-4-carboxamide], the pIC50 was 7.07.

`CNS(=O)(=O)c1ccc(-c2cc(C(=O)NCc3c(C)cc(C)[nH]c3=O)c3cnn(C(C)C)c3n2)cc1` [Ex 42, N-[(4,6-Dimethyl-2-oxo-1,2-dihydro-3-pyridinyl)methyl]-6-{4-[(methylamino)sulfonyl]phenyl}-1-(1-methylethyl)-1H-pyrazolo[3,4-b]pyridine-4-carboxamide]: the pIC50 is 7.25.

As for `Cc1cc(C)c(CNC(=O)c2cc(-c3ccc(N)cc3)nc3c2cnn3C(C)C)c(=O)[nH]1` [Ex 43, 6-(4-Aminophenyl)-N-[(4,6-dimethyl-2-oxo-1,2-dihydro-3-pyridinyl)methyl]-1-(1-methylethyl)-1H-pyrazolo[3,4-b]pyridine-4-carboxamide], the pIC50 was 6.69.

`CC(=O)Nc1ccc(-c2cc(C(=O)NCc3c(C)cc(C)[nH]c3=O)c3cnn(C(C)C)c3n2)cc1` [Ex 44, 6-[4-(acetylamino)phenyl]-N-[(4,6-dimethyl-2-oxo-1,2-dihydro-3-pyridinyl)methyl]-1-(1-methylethyl)-1H-pyrazolo[3,4-b]pyridine-4-carboxamide]: the pIC50 is 7.13.

As for `Cc1cc(C)c(CNC(=O)c2cc(-c3cccc(N)c3)nc3c2cnn3C(C)C)c(=O)[nH]1` [Ex 45, 6-(3-aminophenyl)-N-[(4,6-dimethyl-2-oxo-1,2-dihydro-3-pyridinyl)methyl]-1-(1-methylethyl)-1H-pyrazolo[3,4-b]pyridine-4-carboxamide], the pIC50 is 6.61.

For the molecule `CNC(=O)c1ccc(-c2cc(C(=O)NCc3c(C)cc(C)[nH]c3=O)c3cnn(C(C)C)c3n2)cc1` [Ex 46, N-[(4,6-Dimethyl-2-oxo-1,2-dihydro-3-pyridinyl)methyl]-6-{4-[(methylamino)carbonyl]phenyl}-1-(1-methylethyl)-1H-pyrazolo[3,4-b]pyridine-4-carboxamide], the pIC50 was 6.89.

For the molecule `CC(=O)Nc1cccc(-c2cc(C(=O)NCc3c(C)cc(C)[nH]c3=O)c3cnn(C(C)C)c3n2)c1` [Ex 47, 6-[3-(Acetylamino)phenyl]-N-[(4,6-dimethyl-2-oxo-1,2-dihydro-3-pyridinyl)methyl]-1-(1-methylethyl)-1H-pyrazolo[3,4-b]pyridine-4-carboxamide], the pIC50 was 7.06.

Consider `Cc1cc(C)c(CNC(=O)c2cc(-c3c[nH]c(=O)[nH]c3=O)nc3c2cnn3C(C)C)c(=O)[nH]1` [Ex 48, N-[(4,6-Dimethyl-2-oxo-1,2-dihydro-3-pyridinyl)methyl]-6-(2,4-dioxo-1,2,3,4-tetrahydro-5-pyrimidinyl)-1-(1-methylethyl)-1H-pyrazolo[3,4-b]pyridine-4-carboxamide], for which the pIC50 was 6.70.

In the case of `Cc1cc(C)c(CNC(=O)c2cc(-c3ccnc(N)c3)nc3c2cnn3C(C)C)c(=O)[nH]1` [Ex 49, 6-(2-Amino-4-pyridinyl)-N-[(4,6-dimethyl-2-oxo-1,2-dihydro-3-pyridinyl)methyl]-1-(1-methylethyl)-1H-pyrazolo[3,4-b]pyridine-4-carboxamide], the pIC50 is 6.94.

As for `Cc1cc(C)c(CNC(=O)c2cc(-c3ccc(S(N)(=O)=O)cc3)nc3c2cnn3C(C)C)c(=O)[nH]1` [Ex 50, 6-[4-(Aminosulfonyl)phenyl]-N-[(4,6-dimethyl-2-oxo-1,2-dihydro-3-pyridinyl)methyl]-1-(1-methylethyl)-1H-pyrazolo[3,4-b]pyridine-4-carboxamide], the pIC50 is 7.09.

For the molecule `Cc1cc(C)c(CNC(=O)c2cc(-c3ccc(NS(C)(=O)=O)cc3)nc3c2cnn3C(C)C)c(=O)[nH]1` [Ex 51, N-[(4,6-Dimethyl-2-oxo-1,2-dihydro-3-pyridinyl)methyl]-1-(1-methylethyl)-6-{4-[(methylsulfonyl]amino]phenyl}-1H-pyrazolo[3,4-b]pyridine-4-carboxamide], the pIC50 is 6.79.

As for `Cc1cc(C)c(CNC(=O)c2cc(NC3CCNCC3)nc3c2cnn3C(C)C)c(=O)[nH]1` [Ex 53, N-[(4,6-Dimethyl-2-oxo-1,2-dihydro-3-pyridinyl)methyl]-1-(1-methylethyl)-6-(4-piperidinylamino)-1H-pyrazolo[3,4-b]pyridine-4-carboxamide], the pIC50 was 6.36.

As to `Cc1cc(C)c(CNC(=O)c2cc(NC3CCOCC3)nc3c2cnn3C(C)C)c(=O)[nH]1` [Ex 54, N-[(4,6-Dimethyl-2-oxo-1,2-dihydro-3-pyridinyl)methyl]-1-(1-methylethyl)-6-(tetrahydro-2H-pyran-4-ylamino)-1H-pyrazolo[3,4-b]pyridine-4-carboxamide], the pIC50 is 6.29.

As for `Cc1cc(C)c(CNC(=O)c2cc(NCc3ccncc3)nc3c2cnn3C(C)C)c(=O)[nH]1` [Ex 55, N-[(4,6-Dimethyl-2-oxo-1,2-dihydro-3-pyridinyl)methyl]-1-(1-methylethyl)-6-[(4-pyridinylmethyl)amino]-1H-pyrazolo[3,4-b]pyridine-4-carboxamide], the pIC50 was 6.59.

As for `Cc1cc(C)c(CNC(=O)c2cc(NCCN(C)C)nc3c2cnn3C(C)C)c(=O)[nH]1` [Ex 56, 6-{[2-(Dimethylamino)ethyl]amino}-N-[(4,6-dimethyl-2-oxo-1,2-dihydro-3-pyridinyl)methyl]-1-(1-methylethyl)-1H-pyrazolo[3,4-b]pyridine-4-carboxamide], the pIC50 was 5.68.

`Cc1cc(C)c(CNC(=O)c2cc(NCCO)nc3c2cnn3C(C)C)c(=O)[nH]1` [Ex 57, N-[(4,6-Dimethyl-2-oxo-1,2-dihydro-3-pyridinyl)methyl]-6-[(2-hydroxyethyl)amino]-1-(1-methylethyl)-1H-pyrazolo[3,4-b]pyridine-4-carboxamide]: the pIC50 was 6.11.

In the case of `COc1cncc(-c2cc(C(=O)NCc3c(C)cc(C)[nH]c3=O)c3cnn(C(C)C)c3n2)c1` [Ex 58, N-[(4,6-Dimethyl-2-oxo-1,2-dihydro-3-pyridinyl)methyl]-1-(1-methylethyl)-6-[5-(methyloxy)-3-pyridinyl]-1H-pyrazolo[3,4-b]pyridine-4-carboxamide], the pIC50 was 7.11.

For the molecule `COc1cc(-c2cc(C(=O)NCc3c(C)cc(C)[nH]c3=O)c3cnn(C(C)C)c3n2)ccn1` [Ex 59, N-[(4,6-Dimethyl-2-oxo-1,2-dihydro-3-pyridinyl)methyl]-1-(1-methylethyl)-6-[2-(methyloxy)-4-pyridinyl]-1H-pyrazolo[3,4-b]pyridine-4-carboxamide], the pIC50 is 6.81.

In the case of `Cc1cc(C)c(CNC(=O)c2cc(-c3ccc(N)nc3)nc3c2cnn3C(C)C)c(=O)[nH]1` [Ex 60, 6-(6-Amino-3-pyridinyl)-N-[(4,6-dimethyl-2-oxo-1,2-dihydro-3-pyridinyl)methyl]-1-(1-methylethyl)-1H-pyrazolo[3,4-b]pyridine-4-carboxamide], the pIC50 was 6.70.

On to `Cc1cc(C)c(CNC(=O)c2cc(-c3cncc(S(C)(=O)=O)c3)nc3c2cnn3C(C)C)c(=O)[nH]1` [Ex 61, N-[(4,6-Dimethyl-2-oxo-1,2-dihydro-3-pyridinyl)methyl]-1-(1-methylethyl)-6-[5-(methylsulfonyl)-3-pyridinyl]-1H-pyrazolo[3,4-b]pyridine-4-carboxamide], for which the pIC50 was 6.95.

As for `Cc1cc(C)c(CNC(=O)c2cc(-c3ccco3)nc3c2cnn3C(C)C)c(=O)[nH]1` [Ex 62, N-[(4,6-Dimethyl-2-oxo-1,2-dihydro-3-pyridinyl)methyl]-6-(2-furanyl)-1-(1-methylethyl)-1H-pyrazolo[3,4-b]pyridine-4-carboxamide], the pIC50 is 6.24.

With `CNC(=O)c1ccc(-c2cc(C(=O)NCc3c(C)cc(C)[nH]c3=O)c3cnn(C(C)C)c3n2)cn1` [Ex 63, N-[(4,6-Dimethyl-2-oxo-1,2-dihydro-3-pyridinyl)methyl]-6-[6-[(methylamino)carbonyl]-3-pyridinyl]-1-(1-methylethyl)-1H-pyrazolo[3,4-b]pyridine-4-carboxamide], the pIC50 was 7.02.

For `COc1ncc(-c2cc(C(=O)NCc3c(C)cc(C)[nH]c3=O)c3cnn(C(C)C)c3n2)cc1NS(=O)(=O)C1CC1` [Ex 64, 6-[5-[(Cyclopropylsulfonyl)amino]-6-(methyloxy)-3-pyridinyl]-N-[(4,6-dimethyl-2-oxo-1,2-dihydro-3-pyridinyl)methyl]-1-(1-methylethyl)-1H-pyrazolo[3,4-b]pyridine-4-carboxamide], the pIC50 is 7.10.
